# Source: publication PMC8333425, “Discovery of a dual Ras and ARF6 inhibitor from a GPCR endocytosis screen” (Nature Communications, 2021)
# Several values for one entry are separate records, joined by “and”; a condition that tells them apart may be missing. Identical values can stand only once.
# Assays:
# [1] = system: ERK1/2 activation by AT1R; test: Western blot of AT1R-mediated ERK1/2 activation in Gαq/11 KO cells (with or without β-arrestin2); format: cell-based, human; conditions: for ERK1/2 activation by AT1R in cells lacking Gαq/11, supplemented or not with β-arrestin: 50 μM
# Experimental: (§1) HEK293SL cells (10^5 cells per well) were seeded in a poly-L-lysine-coated six-well plate and transiently transfected with 3 μg Flag-AT1R, HA-B2R or HA-β2AR and/or 500 ng Flag-MEK1-WT, Flag-MEK1-DD, Flag-BRAF-WT, Flag-BRAF-V600E, Flag-K-Ras-WT, Flag-K-Ras-G12V, HA-ARF6-WT, or HA-ARF6-T27N. Gαq/11 KO and βarr1/2 KO cells were seeded onto 100 mm dishes at a density of 10^6 cells per dish. Next day, cells were transfected with 3 μg AT1R alone or along with 500 ng of β-arrestin2 using PEI. After 18 h of transfection, cells were detached and re-seeded onto poly-L-lysine coated 12-well plates (~1.5–2 × 10^5cells/well) for subsequent experiments. Forty-eight hours post transfection, in a 37 °C water bath, cells were serum-starved for 30 min, pretreated with DMSO (0.1%) or compound 21/Rasarfin (50 µM or at indicated concentrations) for 30 min, then stimulated or not with the indicated ligand [AngII (1 µM), BK (1 µM), Iso (10 µM) or EGF (100 ng/ml)] at indicated times. Cells were put on ice, washed with PBS and solubilized in 2x laemmli buffer (250 mM Tris–HCl pH 6.8, 2% SDS (w/v), 10% glycerol (v/v), 0.01% bromophenol blue (w/v) and 5% β-mercaptoethanol (v/v)) by heating at 65 °C for 15 min. Lysates were resolved on 10 or 14% SDS-PAGE, transferred to nitrocellulose membranes and immunoblotted for p-ERK1/2, ERK1/2, p-Akt, Akt, HA, Myc, β-actin or FLAG. ImageLab 5.2 software was used to quantify the digital blots as fold of the phosphorylated protein over total protein, which were then normalized as indicated in the figure legends. Uncropped immunoblots are provided in the Source Data file.
# ERK1/2 activation by B2R = test: Western blot of B2R-mediated ERK1/2 phosphorylation; format: cell-based, human; conditions: for p-ERK1/2 over ERK1/2, normalized to basal (0 min), B2R: Comp 21 50 μM, individual experiments
# Experimental: as §1
# [2] = Gq/11 KO cells + barr2, Time 0 min
smiles,measurement,setting,value
CC(C)C(=O)N1CCN(c2ccc(NC(=O)c3cc4ccccc4o3)cc2Cl)CC1 [Compound 21],"ERK1/2 activation by AT1R in cells lacking Gαq/11, supplemented or not with β-arrestin",[1],efficiently inhibited ERK1/2 activation
same,"ERK1/2 activation by AT1R in cells lacking Gαq/11, supplemented or not with β-arrestin",[1]; listed as Rasarfin,totally blocked
same,ERK1/2 activation relative to time 0 (S_Fig.4a),[1]; [2],1
same,Predicted (LS) mean diff. DMSO - Comp 21 (Bonferroni's multiple comparisons test),[1]; [2],0
same,Predicted (LS) mean diff. DMSO - Comp 21 (Bonferroni's multiple comparisons test),"[1]; Gq/11 KO cells + barr2, Time 5 min",5.112
same,Predicted (LS) mean diff. DMSO - Comp 21 (Bonferroni's multiple comparisons test),"[1]; Gq/11 KO cells + barr2, Time 20 min",2.869
same,ERK1/2 activation relative to time 0 (S_Fig.4a),"[1]; Gq/11 KO cells, Time 0 min",1
same,Mean Diff. DMSO - Comp 21 (Bonferroni's multiple comparisons test),"[1]; Gq/11 KO cells, Time 0 min",0
same,Mean Diff. DMSO - Comp 21 (Bonferroni's multiple comparisons test),"[1]; Gq/11 KO cells, Time 5 min",14.92
same,ERK1/2 activation relative to time 0 (S_Fig.4a),"[1]; Gq/11 KO cells, Time 5 min, listed as Comp 21",0.6393 and 0.9475 and 0.8926 and 0.5297
same,Mean Diff. DMSO - Comp 21 (Bonferroni's multiple comparisons test),"[1]; Gq/11 KO cells, Time 20 min",7.116
same,MAPK response promoted by B2R,ERK1/2 activation by B2R; 50 μM,blocked MAPK responses
same,"p-ERK1/2 over ERK1/2, normalized to basal (0 min), B2R",ERK1/2 activation by B2R; time 0 min,1 (3×) and 1.039
same,"p-ERK1/2 over ERK1/2, normalized to basal (0 min), B2R",ERK1/2 activation by B2R; time 2 min,1.954 and 3.081 and 1.486 and 1.1152
same,"p-ERK1/2 over ERK1/2, normalized to basal (0 min), B2R",ERK1/2 activation by B2R; time 5 min,0.9797 and 0.9619 and 1.157 and 1.051
